Measurements taken from patent US12612384B2, “Heterocyclic CYP4A inhibitor compounds and compositions thereof” (MBD CO., LTD., priority 2021, dated 2026).
Like-named read-outs stand apart in the source and are kept apart here.

Molecular target: T1, CYP4A (Homo sapiens, UniProt Q02928)
T1 construct: purchased; host or cells: bacterial membranes ('bactosome')
T1 sequence (Q02928 5-519): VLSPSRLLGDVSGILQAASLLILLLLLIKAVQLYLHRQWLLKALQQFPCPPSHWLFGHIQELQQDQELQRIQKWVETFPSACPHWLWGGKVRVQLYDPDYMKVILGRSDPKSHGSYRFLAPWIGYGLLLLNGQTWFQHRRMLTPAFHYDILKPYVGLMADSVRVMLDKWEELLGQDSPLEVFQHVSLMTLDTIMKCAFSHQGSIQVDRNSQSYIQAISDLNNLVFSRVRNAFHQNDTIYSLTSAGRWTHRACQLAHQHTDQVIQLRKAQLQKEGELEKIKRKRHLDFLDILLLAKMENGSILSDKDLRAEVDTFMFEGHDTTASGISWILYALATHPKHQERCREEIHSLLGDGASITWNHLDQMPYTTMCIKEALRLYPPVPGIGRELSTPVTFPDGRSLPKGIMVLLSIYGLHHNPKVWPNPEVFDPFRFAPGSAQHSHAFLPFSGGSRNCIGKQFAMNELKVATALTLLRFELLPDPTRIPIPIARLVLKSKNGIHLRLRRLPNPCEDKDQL
Assay: CYP4A enzyme assay (luminescence, Luciferin-ME)
Format: biochemical
Conditions: Compound concentration 5 μM
Method in brief: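 Compounds (5 μM) were preincubated 15 min at room temperature with CYP4A bactosomes in 100 mM KPO4, 0.1% BSA, 1 mM DTT. Reaction ran 30 min at room temperature after adding 5 mM Luciferin-ME and NADPH regeneration system. Luminescence after 15 min with detection reagent; inhibition judged by comparing well signals.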

[1] = 50%-70%, read-out: % Inhibition 50%-70%
[2] = Greater than 90%, read-out: % Inhibition Greater than 90%
[3] = 70%-90%, read-out: % Inhibition 70%-90%

| SMILES | inhibition at 5 µM [2] [%] | inhibition at 5 µM [3] [%] | also measured |
| --- | --- | --- | --- |
| Cc1cc(N2CCN(C(=O)C3CCCN(C(=O)c4ccccc4)C3)CC2)c2ccccc2n1 (stereo not drawn) [Example 102, (1-benzoylpiperidin-3-yl)(4-(2-methylquinolin-4-yl)piperazin-1-yl)methanone] | – | – | inhibition at 5 µM [1]: 50 to 70% |
| CN1CCN(c2ccc(S(=O)(=O)N3CCCC(C(=O)N4CCN(c5ccnc6cc(F)ccc56)CC4)C3)cn2)CC1 (stereo not drawn) [Example 62, (4-(7-fluoroquinolin-4-yl)piperazin-1-yl)(1-((6-(4-methylpiperazin-1-yl)pyridin-3-yl)sulfonyl)piperidin-3-yl)methanone] | > 90 | – | – |
| O=C(C1CCCN(S(=O)(=O)c2ccc(F)cc2)C1)N1CCN(c2ncnc3ccccc23)CC1 (stereo not drawn) [Example 76, (1-((4-fluorophenyl)sulfonyl)piperidin-3-yl)(4-(quinazolin-4-yl)piperazin-1-yl)methanone] | – | 70 to 90 | – |
| O=C(C1CN(S(=O)(=O)c2ccc([N+](=O)[O-])cc2)C1)N1CCN(c2ccnc3cc(F)ccc23)CC1 [Example 67, (4-(7-fluoroquinolin-4-yl)piperazin-1-yl)(1-((4-nitrophenyl)sulfonyl)azetidin-3-yl)methanone] | > 90 | – | – |
| CC(=O)Nc1cccc(S(=O)(=O)N2CCC(C(=O)N3CCN(c4ccnc5cc(F)ccc45)CC3)C2)c1 (stereo not drawn) [Example 9, N-(3-((3-(4-(7-fluoroquinolin-4-yl)piperazine-1-carbonyl)pyrrolidin-1-yl)sulfonyl)phenyl)acetamide] | > 90 | – | – |
| O=C(C1CCN(Cc2ccc([N+](=O)[O-])cc2)C1)N1CCN(c2ccnc3cc(F)ccc23)CC1 (stereo not drawn) [Example 53, (4-(7-fluoroquinolin-4-yl)piperazin-1-yl)(1-(4-nitrobenzyl)pyrrolidin-3-yl)methanone] | – | 70 to 90 | – |
| O=C(c1ccncc1)N1CCCC(C(=O)N2CCN(c3ccnc4cc(Cl)ccc34)CC2)C1 (stereo not drawn) [Example 87, (4-(7-chloroquinolin-4-yl)piperazin-1-yl)(1-(pyridine-4-ylcarbonyl)piperidin-3-yl)methanone] | – | 70 to 90 | – |
| O=C([C@H]1CCN(S(=O)(=O)c2ncnn2CCO)C1)N1CCN(c2ccnc3cc(F)ccc23)CC1 [Example 145, (S)-(4-(7-fluoroquinolin-4-yl)piperazin-1-yl)(1-((1-(2-hydroxyethyl)-1H-1,2,4-triazol-5-yl)sulfonyl)pyrrolidin-3-yl)methanone] | – | 70 to 90 | – |
| CC(=O)Nc1nc(C)c(S(=O)(=O)N2CC[C@H](C(=O)N3CCN(c4ccnc5ccccc45)CC3)C2)s1 [Example 49, (S)—N-(4-methyl-5-((3-(4-(quinolin-4-yl)piperazine-1-carbonyl)pyrrolidin-1-yl)sulfonyl)thiazol-2-yl)acetamide] | > 90 | – | – |
| O=C(C1CCN(S(=O)(=O)c2ccc(-c3cccnc3)cc2)C1)N1CCN(c2ccnc3ccccc23)CC1 (stereo not drawn) [Example 32, (1-((4-(pyridin-3-yl)phenyl)sulfonyl)pyrrolidin-3-yl)(4-(quinolin-4-yl)piperazin-1-yl)methanone] | > 90 | – | – |
| O=C(C1CCN(S(=O)(=O)c2cccs2)C1)N1CCN(c2ccnc3ccccc23)CC1 (stereo not drawn) [Example 36, (4-(quinolin-4-yl)piperazin-1-yl)(1-(thiophen-2-ylsulfonyl)pyrrolidin-3-yl)methanone] | – | 70 to 90 | – |
| O=C(C1CCCN(S(=O)(=O)c2ccc(Cl)nc2)C1)N1CCN(c2ccnc3cc(F)ccc23)CC1 (stereo not drawn) [Example 59, (1-((6-chloropyridin-3-yl)sulfonyl)piperidin-3-yl)(4-(7-fluoroquinolin-4-yl)piperazin-1-yl)methanone] | > 90 | – | – |
| O=C(c1ccc(F)cc1)N1CCCC(C(=O)N2CCN(c3cc(C(F)(F)F)nc4ccccc34)CC2)C1 (stereo not drawn) [Example 96, (1-(4-fluorobenzoyl)piperidin-3-yl)(4-(2-(trifluoromethyl)quinolin-4-yl)piperazin-1-yl)methanone] | – | – | inhibition at 5 µM [1]: 50 to 70% |
| Cn1ccnc1S(=O)(=O)N1CCC(C(=O)N2CCN(c3ccnc4cc(F)ccc34)CC2)C1 (stereo not drawn) [Example 5, (4-(7-fluoroquinolin-4-yl)piperazin-1-yl)(1-((1-methyl-1H-imidazol-2-yl)sulfonyl)pyrrolidin-3-yl)methanone] | > 90 | – | – |
| O=C([C@H]1CCN(S(=O)(=O)c2ncn[nH]2)C1)N1CCN(c2ccnc3cc(F)c(F)cc23)CC1 [Example 168, (S)-(1-((1H-1,2,4-triazol-5-yl)sulfonyl)pyrrolidin-3-yl)(4-(6,7-difluoroquinolin-4-yl)piperazin-1-yl)methanone] | > 90 | – | – |
